How the values were obtained:
human tumor xenografts = details: nude mice; cited from earlier work
[1] = Moisture sorption/desorption (VTI SGA-100 moisture balance); type: physicochemical; details: for hygroscopicity (in words): 5 to 95% RH; for Weight % chg: 25 deg C
Description: The samples were not dried prior to analysis.

[2] = Storage of Form B in a closed vial, XRPD pattern compared; type: physicochemical; details: 31 days, ambient conditions
Method: X-ray powder diffraction analyses were carried out on a Shimadzu XRD-6000 X-ray powder diffractometer using Cu Kα radiation having a wavelength of 1.5406 Å. The instrument is equipped with a fine-focus X-ray tube. The tube power was set by setting potential difference at 40 kV, and current 40 mA. The divergence and scattering slits were set at 1° and the receiving slit was set at 0.15 mm. Diffracted radiation was detected by a NaI scintillation detector. A theta-two theta continuous scan at 3°/min (0.4 sec/0.02° step) from 2.5 to 40 °2 θ was performed. A silicon standard was analyzed each day to check the instrument alignment. Each sample was analyzed in a quartz sample holder. A variable temperature (VT-XRPD) experiment was performed on one form. The sample was prepared for analysis by pressing it into a variable temperature holder. A powder pattern was collected initially at 35° C. and again, after heating, at 200° C.

[3] = Dehydration/desolvation under vacuum, XRPD compared; type: physicochemical
Method: Dehydration/desolvation studies were conducted by placing a sample under continuous vacuum at room temperature for 14 days. An XRPD pattern was obtained on the remaining solid and compared to the starting material.

[4] = cited from earlier work
[5] = start, elapsed time 0.0 min, sample not dried

## CC[C@@]1(O)C(=O)OCc2c1cc1n(c2=O)Cc2cc3c([N+](=O)[O-])cccc3nc2-1 [9-nitrocamptothecin, 9-nitro-20(S)-camptothecin]
Human tumor xenografts
  regression of human tumors established as xenografts: induced regression

## CC[C@@]1(O)C(=O)OCc2c1cc1n(c2=O)Cc2cc3c([N+](=O)[O-])cccc3nc2-1 [Form A, 9-nitrocamptothecin]
[1]
  hygroscopicity (in words): not hygroscopic
[1]; sorption, about 35% RH
  Weight % chg: 0.0210%
[1]; [5]
  Weight % chg: 0.0000%

## CC[C@@]1(O)C(=O)OCc2c1cc1n(c2=O)Cc2cc3c([N+](=O)[O-])cccc3nc2-1 [Form B, 9-nitrocamptothecin]
[2]
  stability of the crystalline polymorph on storage (XRPD pattern unchanged): relatively stable
[1]
  hygroscopicity (in words): relatively hygroscopic
[1]; [5]
  Weight % chg: 0.0000%

## CC[C@@]1(O)C(=O)OCc2c1cc1n(c2=O)Cc2cc3c([N+](=O)[O-])cccc3nc2-1 [Form C, 9-nitrocamptothecin]
[3]
  result of attempt to desolvate under vacuum: becomes amorphous

## CC[C@@](O)(C(=O)[O-])c1cc2n(c(=O)c1CO)Cc1cc3ccccc3nc1-2.[Na+] [Sodium camptothecin]
[4]; administered intravenously
  unpredictable side effects: myelosuppression and hemorrhagic cystitis
[4]; solubilized by sodium hydroxide in water, intravenous
  activity in clinical trials: antineoplastic activity
